Assay [1] deals with T1, recombinant human B1 receptors (Homo sapiens, UniProt P46663).
T1 construct: host or cells: CHO (CHO-B1)
T1 sequence (P46663 1-353): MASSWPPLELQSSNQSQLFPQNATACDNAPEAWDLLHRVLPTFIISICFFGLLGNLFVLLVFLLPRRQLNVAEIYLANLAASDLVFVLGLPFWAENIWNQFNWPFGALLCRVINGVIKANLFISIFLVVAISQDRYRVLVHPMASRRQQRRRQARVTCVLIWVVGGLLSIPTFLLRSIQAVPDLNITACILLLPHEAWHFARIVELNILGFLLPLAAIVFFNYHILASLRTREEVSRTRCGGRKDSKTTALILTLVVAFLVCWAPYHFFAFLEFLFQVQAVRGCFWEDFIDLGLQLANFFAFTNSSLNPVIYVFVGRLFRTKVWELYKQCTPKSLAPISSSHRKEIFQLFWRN
In words: Functional assay: antagonist potency by cytosolic calcium measurement (fluo-4, plate reader fluorimeter) in CHO-B1 cells. In kind it is cell-based. How it is done:
Assessment of Antagonist Potency at B1 and B2 Receptors In Vitro by Measurement of Cytosolic Calcium Ion Concentration with a Plate Reader Fluorimeter in Cells Expressing Recombinant Human B1 or B2 Receptors
Chinese hamster ovary (CHO) cells stably expressing recombinant human B1 (CHO-B1, Euroscreen) or B2 (CHO-B2, Perkin-Elmer) receptors were cultured in Dulbecco's Modified Eagle's Medium (DMEM) containing 10% Fetal Calf Serum (FCS), 100 U/ml penicillin, 0.1 mg/ml streptomycin, 0.25 μg/ml amphotericin B, 1% Minimum Essential Medium Eagle (MEM), non essential amino acid solution, […], 1% pyruvate (for the B2 cell line). Cells were kept at 37° C. in a humidified incubator in an atmosphere of 5% CO2/95% air and were passaged 1:4 three times a week. Cells were plated at 1.5-2.5×10^4 cell/well on standard 96-well microplates, measurements of cytosolic calcium ion concentration ([Ca^2+]i) were carried out 1-2 days after cell plating.
Measurements of [Ca^2+]i were carried out on CHO-B1 and CHO-B2 cells stably expressing human B1 and B2 receptors, respectively. Cells were grown in standard 96-well microplates and before the measurement were loaded with a fluorescent Ca^2+-sensitive dye, fluo-4/AM (2 μM): after removing the culture medium the dye was added to the cells (dissolved in assay buffer: 145 mM NaCl, 5 mM KCl, 2 mM MgCl2, 2 mM CaCl2, 10 mM HEPES, 20 mM D-glucose, 2 mM probenecid, 100 μl/well) and cells were incubated at 37° C. in a humidified incubator in an atmosphere of 5% CO2/95% air for 40-120 min. To stop dye loading cells were washed twice with assay buffer. After washing, various concentrations of the test compounds (diluted in extracellular medium from a DMSO stock solution, final DMSO concentration was <0.1%) or buffer were added to each well depending on the experimental setup. After incubation at 37° C. for 20-25 min. baseline and agonist-evoked changes of [Ca^2+]i were measured column by column with a plate reader fluorimeter (Fluoroskan Ascent, Labsystems). Excitation and detection of emission was carried out from the bottom of the plate. Filters used for Fluo-4: excitation filter—485 nm, emission filter—538 nm. The whole measurement process was performed at 37° C. and was controlled by custom software Inhibitory potency of the test compounds was assessed by measuring the reduction in the agonist-evoked [Ca^2+]i-elevation in the presence of different concentrations of the compounds. The agonists were LysDABK for CHO-B1, and bradykinin for CHO-B2 cells. Agonists were applied at an EC80 concentration, the EC80-values were derived from daily determined dose-response curves. Fluorescence data were expressed as ΔF/F (fluorescence change normalized to baseline). All treatments on a single plate were measured in multiple wells. Data from all wells with the same treatment were averaged and the average values were used for analysis. Inhibitory potency of a compound at a single concentration point was expressed as percent inhibition of the control agonist response. Sigmoidal concentration-inhibition curves were fitted to the data (derived from at least three independent experiments) and IC50-values were determined as the concentration that produces half of the maximal inhibition caused by the compound.

Assay [2] concerns the target T2, human recombinant bradykinin B1 receptor (Homo sapiens, UniProt P46663).
T2 construct: host or cells: CHO cells
T2 sequence (P46663 1-353): T1 sequence (P46663 1-353)
In words: Human recombinant bradykinin B1 receptor binding. As for the experimental part: 1. Human Recombinant Bradykinin B1 Receptor Binding
Binding assays were carried out on human recombinant bradykinin) receptors (expressed in CHO cells) according to the Euroscreen Technical Data Sheet (Cat.No.:ES-091). 20 μg protein/tube was incubated with [3,4-prolyl-3,4-^3H(N)]-[Des-Arg^10] Kallidin as radioligand. Non specific binding was determined in the presence of 10 μM Lys-des-Arg^9-Bradykinin. The final incubation volume was 250 μl. Samples were incubated for 15 min. at 25° C. then were rapidly vacuum filtered through GF/B filters presoaked for at least 1 h in 0.5% PEI. Radioactivity was determined by liquid scintillation spectroscopy.

The mark [3] stands for this setting: CHO-B1 cells, inhibition of LysDABK (EC80)-evoked [Ca2+]i elevation, read-out: B1 func.
[4] abbreviates: CHO cell membranes, [3H]-[Des-Arg10] Kallidin radioligand, read-out: B1 binding.

The record followed here is patent US20130029991A1, “New Phenylsulfamoyl Benzamide Derivatives as Bradykinin Antagonists” (priority 2006, published 2013).

Structures are written as SMILES. Counter-ions that a name gives are not always drawn. Like-named read-outs stand apart in the source and are kept apart here.

Turning to `O=C(CNC(=O)c1ccc(S(=O)(=O)Nc2ccccc2Oc2ccccc2)cc1)NCCC1CCNCC1` [Example 10, 4-(2-Phenoxy-phenylsulfamoyl)-N-[(2-piperidin-4-yl-ethylcarbamoyl)-methyl]-benzamide hydrochloride], the IC50 in assay [1] (setting [3]) was < 20 nM. For the same compound, the Ki in assay [2] (setting [4]) was < 20 nM.
Take `N=C(N)N1CCC(CNC(=O)CNC(=O)c2ccc(S(=O)(=O)Nc3ccccc3Oc3ccc(Cl)cc3Cl)cc2)CC1` [Example 14, N-{[(1-Carbamimidoyl-piperidin-4-ylmethyl)-carbamoyl]-methyl}-4-[2-(2,4-dichloro-phenoxy)-phenylsulfamoyl]-benzamide hydrochloride]: the IC50 in assay [1] (setting [3]) was < 20 nM. Moreover, the Ki in assay [2] (setting [4]) is < 20 nM.
With `CN(C)CCCNC(=O)CNC(=O)c1ccc(S(=O)(=O)Nc2ccccc2Oc2ccccc2)cc1` [Example 54, N-[(3-Dimethylamino-propylcarbamoyl)-methyl]-4-(2-phenoxy-phenylsulfamoyl)-benzamide], in assay [1] (setting [3]), the IC50 is < 20 nM. In addition, the Ki in assay [2] (setting [4]) is < 20 nM.
Turning to `COc1ccc(NS(=O)(=O)c2ccc(C(=O)NCC(=O)NCC3CCNCC3)cc2)c(Oc2ccc(Cl)cc2Cl)c1` [Example 11, 4-[2-(2,4-Dichloro-phenoxy)-4-methoxy-phenylsulfamoyl]-N-{[(piperidin-4-ylmethyl)-carbamoyl]-methyl}-benzamide hydrochloride], the IC50 in assay [1] (setting [3]) was in the range of 20 to 100 nM. For the same compound, the Ki in assay [2] (setting [4]) was in the range of 20 to 100 nM.
With `O=C(CNC(=O)c1ccc(S(=O)(=O)Nc2ccccc2Oc2ccc(Cl)cc2Cl)cc1)NCCCN1CCCCC1` [Example 2, 4-[2-(2,4-Dichloro-phenoxy)-phenylsulfamoyl]-N-[(3-piperidin-1-yl-propylcarbamoyl)-methyl]-benzamide], the IC50 in assay [1] (setting [3]) is < 20 nM. Moreover, in assay [2] (setting [4]), the Ki is < 20 nM.
As to `O=C(CNC(=O)c1ccc(S(=O)(=O)Nc2ccccc2Oc2ccc(Cl)cc2Cl)cc1)NC1CCC(N2CCCCC2)CC1` (centres unmarked) [Example 62, 4-[2-(2,4-Dichloro-phenoxy)-phenylsulfamoyl]-N-[(4-piperidin-1-yl-cyclohexyl-carbamoyl)-methyl]-benzamide], in assay [1] (setting [3]), the IC50 was < 20 nM. Moreover, the Ki in assay [2] (setting [4]) is < 20 nM.
Consider `O=C(CNC(=O)c1ccc(S(=O)(=O)Nc2ccccc2Oc2ccc(Cl)cc2Cl)cc1)NCCCC1CCNCC1` [Example 61, 4-[2-(2,4-Dichloro-phenoxy)-phenylsulfamoyl]-N-[(3-piperidin-4-yl-propylcarbamoyl)-methyl]-benzamide hydrochloride], for which, in assay [1] (setting [3]), the IC50 was < 20 nM. Further, the Ki in assay [2] (setting [4]) is < 20 nM.
As for `O=C(CNC(=O)c1ccc(S(=O)(=O)Nc2ccccc2Oc2ccc(Cl)cc2Cl)cc1)NC1CCNCC1` [Example 60, 4-[2-(2,4-Dichloro-phenoxy)-phenylsulfamoyl]-N-(piperidin-4-ylcarbamoylmethyl)-benzamide hydrochloride], the IC50 in assay [1] (setting [3]) was < 20 nM. Besides, in assay [2] (setting [4]), the Ki was < 20 nM.
With `O=C(CNC(=O)c1ccc(S(=O)(=O)Nc2cc(F)ccc2Oc2ccccc2)cc1)NCC1CCNCC1` [Example 7, 4-(5-Fluoro-2-phenoxy-phenylsulfamoyl)-N-{[(piperidin-4-ylmethyl)-carbamoyl]-methyl}-benzamide hydrochloride], the IC50 in assay [1] (setting [3]) was < 20 nM. Further, the Ki in assay [2] (setting [4]) is < 20 nM.
In the case of `O=C(CNC(=O)c1ccc(S(=O)(=O)Nc2ccccc2Oc2ccc(Cl)cc2Cl)cc1)NCC1CCNCC1` [Example 1, 4-[2-(2,4-Dichloro-phenoxy)-phenylsulfamoyl]-N-{[(Piperidin-4-ylmethyl)-carbamoyl]-methyl}-benzamide hydrochloride], the IC50 in assay [1] (setting [3]) was < 20 nM. Also, the Ki in assay [2] (setting [4]) is < 20 nM.
As to `O=C(CNC(=O)c1ccc(S(=O)(=O)Nc2ccccc2Oc2ccccc2)cc1)NC1CCNCC1` [Example 66, 4-(2-Phenoxy-phenylsulfamoyl)-N-(piperidin-4-ylcarbamoylmethyl)-benzamide hydrochloride], the IC50 in assay [1] (setting [3]) was < 20 nM. In addition, the Ki in assay [2] (setting [4]) is < 20 nM.
For the compound `O=C(CNC(=O)c1ccc(S(=O)(=O)Nc2ccccc2Oc2ccccc2)cc1)NCC1CCNCC1` [Example 5, 4-(2-Phenoxy-phenylsulfamoyl)-N-{[(piperidin-4-ylmethyl)-carbamoyl]-methyl}-benzamide hydrochloride], the IC50 in assay [1] (setting [3]) fell in the range of 20 to 100 nM. In assay [2] (setting [4]), the Ki was in the range of 20 to 100 nM.
On to `O=C(CNC(=O)c1ccc(S(=O)(=O)Nc2ccccc2Oc2ccccc2)cc1)NCC(=O)N1CCNCC1` [Example 16, N-[(2-Oxo-2-piperazin-1-yl-ethylcarbamoyl)-methyl]-4-(2-phenoxy-phenylsulfamoyl)-benzamide hydrochloride], for which, in assay [1] (setting [3]), the IC50 was < 20 nM. Also, the Ki in assay [2] (setting [4]) was < 20 nM.
Turning to `CN(C)CCCNC(=O)CNC(=O)c1ccc(S(=O)(=O)Nc2ccccc2Oc2ccc(Cl)cc2Cl)cc1` [Example 25, 4-[2-(2,4-Dichloro-phenoxy)-phenylsulfamoyl]-N-[(3-dimethylamino-propylcarbamoyl)-methyl]-benzamide], the IC50 in assay [1] (setting [3]) is < 20 nM. Besides, the Ki in assay [2] (setting [4]) is < 20 nM.
In the case of `O=C(CNC(=O)c1ccc(S(=O)(=O)Nc2cc(F)ccc2Oc2ccc(F)cc2)cc1)NCCC1CCNCC1` [Example 13, 4-[5-Fluoro-2-(4-fluoro-phenoxy)-phenylsulfamoyl]-N-[(2-piperidin-4-yl-ethylcarbamoyl)-methyl]-benzamide hydrochloride], in assay [1] (setting [3]), the IC50 was < 20 nM. In assay [2] (setting [4]), the Ki is < 20 nM.
For `CCCN1C(=O)[C@H](NC(=O)Nc2ccc(N3CCC(N4CCCCC4)CC3)cc2)N=C(c2ccc(C)cc2)c2ccccc21` [N-[4-(,4′-bipiperidin)-1′-ylphenyl]-N′-[(3R)-2,3-dihydro-5-(4-methyl-phenyl)-2-oxo-1-propyl-1H-1,4-benzodiazepin-3-yl]-urea, reference compound], in assay [1] (reference compounds, functional test, read-out: IC50), the IC50 was determined as 64.5 nM. The Ki in assay [2] (reference compounds, binding test, read-out: Ki) came out at 13.4 nM.
Consider `O=C(CNC(=O)c1ccc(S(=O)(=O)Nc2ccccc2Oc2ccc(F)cc2)cc1)NCC1CCNCC1` [Example 12, 4-[2-(4-Fluoro-phenoxy)-phenylsulfamoyl]-N-{[(piperidin-4-ylmethyl)-carbamoyl]-methyl}-benzamide hydrochloride], for which the IC50 in assay [1] (setting [3]) was < 20 nM. Besides, the Ki in assay [2] (setting [4]) is < 20 nM.
On to `O=C(CNC(=O)c1ccc(S(=O)(=O)Nc2cc(F)ccc2Oc2ccc(F)cc2)cc1)NCC1CCNCC1` [Example 15, 4-[5-Fluoro-2-(4-fluoro-phenoxy)-phenylsulfamoyl]-N-{[(piperidin-4-ylmethyl)-carbamoyl]-methyl}-benzamide hydrochloride], for which, in assay [1] (setting [3]), the IC50 is < 20 nM. The Ki in assay [2] (setting [4]) was < 20 nM.
On to `O=C(CNC(=O)c1ccc(S(=O)(=O)Nc2ccccc2Oc2ccccc2)cc1)Nc1ccc(N2CCC(N3CCCCC3)CC2)cc1` [Example 49, N-[(4-[1,4′]Bipiperidinyl-1′-yl-phenylcarbamoyl)-methyl]-4-(2-phenoxy-phenylsulfamoyl)-benzamide], for which, in assay [1] (setting [3]), the IC50 is < 20 nM. The Ki in assay [2] (setting [4]) is < 20 nM.
